{
  "source": "patent US20080207601A1",
  "about": "“Methods of and Compositions For the Prevention of Anxiety, Substance Abuse, and Dependence” (Hythiam , Inc., priority 2005, published 2008)",
  "origin": "cited, not measured here",
  "key": {"[1]": {"settings": "in vivo"}, "allopregnanolone": {"test_system": "allopregnanolone", "settings": "clinical studies"}, "[2]": {"settings": "as much as"}, "[3]": {"experiment": "not given", "remark": "listed apart in the source"}},
  "data": [
    {"molecule": "COc1ccc2c3c1O[C@H]1[C@@H](O)CC[C@H]4[C@@H](C2)N(C)CC[C@@]341", "note": "[DIHYDROCODEINE]", "values": [
      {"measurement": "potency relative to codeine", "setting": "in vivo", "value": "Dihydrocodeine is approximately twice as potent as codeine; this is"}
    ]},
    {"molecule": "CC(=O)[C@H]1CC[C@H]2[C@@H]3CC[C@H]4C[C@@H](O)CC[C@]4(C)[C@H]3CC[C@]12C", "note": "[isopregnanolone]", "values": [
      {"measurement": "effect on potentiation of GABAA receptor function by allopregnanolone and alphaxalone", "setting": "GABAA receptor", "value": "inhibited"}
    ]},
    {"molecule": "COc1cccc(C2(O)CCCCC2CN(C)C)c1", "note": "(centres unmarked) [TRAMADOL]", "values": [
      {"measurement": "potency relative to morphine", "setting": "IV/IM route", "value": "Tramadol is approximately 10% as potent as morphine, when given"}
    ]},
    {"molecule": "N[C@@H]1C[C@H]1c1ccccc1", "note": "(racemic) [TRANYLCYPROMINE]", "values": [
      {"measurement": "time in which the drug is excreted", "setting": "[1]", "value": 24, "unit": "h"}
    ]},
    {"molecule": "CNCCC(Oc1ccc(C(F)(F)F)cc1)c1ccccc1", "note": "(centres unmarked) [Fluoxetine]", "values": [
      {"measurement": "brain and cerebrospinal fluid content of allopregnanolone", "setting": "allopregnanolone", "value": "increase"}
    ]},
    {"molecule": "CC(=O)[C@H]1CC[C@H]2[C@@H]3CC[C@@H]4C[C@@H](O)CC[C@]4(C)[C@H]3CC[C@]12C", "note": "[epipregnanolone]", "values": [
      {"measurement": "effect on potentiation of GABAA receptor function by allopregnanolone and alphaxalone", "setting": "GABAA receptor", "value": "inhibited"}
    ]},
    {"molecule": "CCCC(C)(COC(N)=O)COC(N)=O", "note": "[MEPROBROMATE]", "values": [
      {"measurement": "ingested amount with reported survival", "setting": "[2]", "value": "much as 40 g."}
    ]},
    {"molecule": "C[C@]12C=CC(=O)N[C@@H]1CC[C@@H]1[C@@H]2CC[C@]2(C)[C@@H](C(=O)Nc3cc(C(F)(F)F)ccc3C(F)(F)F)CC[C@@H]12", "note": "[Dutasteride, (5α,17β)-N-{2,5 bis(trifluoromethyl)phenyl}-3-oxo-4-azaandrost-1-ene-17-carboxamide]", "values": [
      {"measurement": "adverse effects compared with therapeutic dose of 0.5 mg", "setting": "[3]; daily doses of 5 mg, 60 subjects, 6 months", "value": "subjects for 6 months with no additional adverse effects to those"},
      {"measurement": "safety concerns", "setting": "[3]; single doses up to 40 mg (80 times the therapeutic dose) for 7 days, volunteer studies", "value": "without significant safety concerns. In a clinical study, daily doses"}
    ]},
    {"molecule": "CN1C(=O)CN=C(c2ccccc2)c2cc(Cl)ccc21", "note": "[diazepam]", "values": [
      {"measurement": "effect on the positive modulation of 3 μM flumazenil induced by ethanol withdrawal", "setting": "GABAA receptors; 10 μM diazepam substituted for ethanol", "value": "negated the positive modulation"}
    ]},
    {"molecule": "CCOC(=O)c1ncn2c1CN(C)C(=O)c1cc(F)ccc1-2", "note": "[flumazenil, ethyl 8-fluoro-5,6-dihydro-5-methyl-6-oxo-4H-imidazo-[1,5-a][1,4]benzodiazepine-3-carboxylate]", "values": [
      {"measurement": "modulation of the GABA evoked Cl-current", "setting": "GABAA receptors; 3 μM flumazenil, ethanol withdrawn cells", "value": "potentiates"}
    ]}
  ]
}
